According to ChEMBL document CHEMBL1145086, “Selectivity fields: comparative molecular field analysis (CoMFA) of the glycine/NMDA and AMPA receptors” (J Med Chem, 2003):
Values joined by “and” are separate entries in the source; they are usually repeats but may differ in a detail not shown here. Identical values can stand only once.

Experiments:
[1] = biological target: Glutamate receptor ionotropic, NMDA 1 (Rattus norvegicus, UniProt P35439); experiment: Binding selectivity towards N-methyl-D-aspartate glutamate receptor 1 was determined by using [3H]- glycine/NMDA
[2] = biological target: Glutamate receptor ionotropic, AMPA (Rattus norvegicus, UniProt P19490+P19491+P19492+P19493); experiment: Binding selectivity towards Ionotropic glutamate receptor AMPA was determined by using [3H]- AMPA; format: protein-complex assay

| Compound | Ki [1] | Ki [2] |
| --- | --- | --- |
| CCOC(=O)c1nc2c(O)nc3ccc(Cl)c(Cl)c3n2n1 | 4.8 µM | 4.9 µM |
| O=C(O)c1cc2n(n1)C(C(=O)O)Nc1cc(Cl)c([N+](=O)[O-])cc1-2 (stereo not given) | 1.1 µM | 0.74 µM |
| CCOC(=O)c1nc2c(O)nc3cc(Cl)c([N+](=O)[O-])cc3n2n1 | 10.2 µM | – |
| CCOC(=O)c1nc2c(O)nc3cc(Cl)c(-n4cccn4)cc3n2n1 | 23 µM | 18.4 µM |
| O=C[n+]1cccn1-c1cc2c(cc1Cl)NC(C(=O)O)n1nc(C(=O)O)cc1-2 (stereo not given) | 8.2 µM | 0.27 µM |
| O=C(O)c1nc2c(=O)[nH]c3cc(Cl)c(-n4cccn4)cc3n2n1 | 0.86 µM and 5.3 µM | 0.86 µM |
| CCOC(=O)c1nc2c(=O)[nH]c3cc(Cl)c(N)cc3n2n1 | 4.8 µM | – |
| Nc1cc2c(cc1Cl)nc(O)c1nc(C(=O)O)nn12 | 3.6 µM | – |
| O=C[n+]1cccn1-c1cc2c(cc1Cl)[nH]c(=O)c1nc(C(=O)O)nn12 | 28 µM | 0.53 µM |
| CCOC(=O)c1cc2n(n1)C(C(=O)O)Nc1cc(Cl)c(-n3ccc[n+]3C=O)cc1-2 (stereo not given) | 57 µM | 1.4 µM |
| O=C(O)c1cc2n(n1)C(C(=O)O)Nc1cc(Cl)c(-n3ccnc3)cc1-2 (stereo not given) | 8.3 µM | 0.14 µM |
| CCOC(=O)c1nc2c(=O)[nH]c3cc(Cl)c(-n4ccc[n+]4C=O)cc3n2n1 | 19 µM | 1.9 µM |
| O=C(O)c1nc2c(=O)[nH]c3cc(Cl)c(-n4ccnc4)cc3n2n1 | 33.5 µM | 0.14 µM |

The next lines start with the values.

| Ki [1] | Ki [2] | Compound |
| --- | --- | --- |
| 1.41 µM | 12.4 µM | O=C(O)c1cc2n(n1)C(C(=O)O)Nc1ccccc1-2 (stereo not given) |
| 26.5 µM | 72 µM | CCOC(=O)c1cc2n(n1)C(C(=O)O)Nc1cc(Cl)ccc1-2 (stereo not given) |
| 0.16 µM | 2.4 µM | O=C(O)c1cc2n(n1)C(C(=O)O)Nc1cc(Cl)c(Cl)cc1-2 (stereo not given) |
| 0.48 µM | 2.3 µM | O=C(O)c1cc2n(n1)C(C(=O)O)Nc1cc(Cl)ccc1-2 (stereo not given) |
| 10.6 µM | 8.2 µM | CCOC(=O)c1cc2n(n1)C(C(=O)O)Nc1cc(Cl)c([N+](=O)[O-])cc1-2 (stereo not given) |
| 33.3 µM | 42 µM | CCOC(=O)c1cc2n(n1)C(C(=O)O)Nc1ccccc1-2 (stereo not given) |
